Like-named read-outs stand apart in the source and are kept apart here.
Experiments:
Rat α3β2β3 = target: T1, Rat α3β2β3 (Rattus norvegicus, UniProt P04757+P12390+P12391); experiment: Voltage clamp of Xenopus oocytes expressing α3β2β3 nAChR; type: cell-based
T1 construct: expressed in transfected cells; host or cells: Xenopus laevis oocytes injected with subunit cRNAs; clones from Dr. Jim Boulter (UCLA)
Description: Mature (>9 cm) female Xenopus laevis African frogs (NASCO, Ft. Atkinson, Wis.) were used as a source of oocytes. Prior to surgery, frogs were anesthetized by placing the animal in a 1.5 g/l solution of MS222 (3-aminobenzoic acid ethyl ester) for 30 minutes. Oocytes were removed from an incision made in the abdomen.
In order to remove the follicular cell layer, harvested oocytes were treated with 1.25 mg/ml collagenase from Worthington Biochemical Corporation (Freehold, N.J.) for 2 hours at room temperature in calcium-free Barth's solution (88 mM NaCl, 10 mM HEPES pH 7.6, 0.33 mM MgSO4, 0.1 mg/ml gentamicin sulfate). Subsequently, stage 5 oocytes were isolated and injected with 50 nl (5-20 ng) each of the appropriate subunit cRNAs. Recordings were made 2 to 15 days after injection.
Rat neuronal nAChR clones and mouse muscle nAChR cDNA clones were used. The wild-type clones were obtained from Dr. Jim Boulter (UCLA). The rat α6/3 (Dowell et al. J Neurosci, 2003, 23:8445-8452) clone was obtained from Michael McIntosh (University of Utah) and expressed in Xenopus oocytes in combinations with rat β2 and β3. […] The TM2 domain is understood to line the pore of the channel, with alpha helix structure. The 7′ position may actually be directed away from the actual pore lining, but this residue is highly conserved in all of the nAChR. It is valine in all of them except α9 (isoleucine) and β1, where it is alanine. The TM2 mutation in the α6/3 chimera was corrected by using QuickChange (Stratagene) according to their protocols. The corrected α6/3 chimera sequence was confirmed by restriction diagnostics and by automated fluorescent sequencing (University of Florida core facility). The corrected clone was expressed as above in Xenopus oocytes with β2 and β3 and compared to the wild-type α3 co-expressed with β2 and β3.
After linearization and purification of cloned cDNAs, RNA transcripts were prepared in vitro using the appropriate mMessage mMachine kit from Ambion Inc. (Austin, Tex.).
Electrophysiology. The majority of experiments were conducted using OpusXpress 6000A (Axon Instruments, Union City Calif.). OpusXpress is an integrated system that provides automated impalement and voltage clamp of up to eight oocytes in parallel. Cells were automatically perfused with bath solution, and agonist solutions were delivered from a 96-well plate. Both the voltage and current electrodes were filled with 3 M KCl. The agonist solutions were applied via disposable tips, which eliminated any possibility of cross-contamination. Drug applications alternated between ACh controls and experimental applications. Flow rates were set at 2 ml/min for experiments with α7 receptors and 4 ml/min for other subtypes. Cells were voltage-clamped at a holding potential of −60 mV. Data were collected at 50 Hz and filtered at 20 Hz. Agonist applications were 12 seconds in duration followed by 181-second washout periods for α7 receptors and 8 seconds with 241-second wash periods for other subtypes. For some experiments, particularly under conditions where residual inhibition precluded making repeated measurements from single cells (see below), manual oocyte recordings were made as previously described (Papke and Papke Br J of Pharmacol, 2002, 137:49-61). In brief, Warner Instruments (Hamden, Conn.) OC-725C oocyte amplifiers were used, and data were acquired with a minidigi or digidata 1200A with pClamp9 software (Axon Instruments). Sampling rates were between 10 and 20 Hz and the data were filtered at 6 Hz. […]

mice = experiment: Locomotor activity, nicotine-induced hypomotility; type: in vivo; settings: for Locomotor Activity # Interrupts (Mean ± SEM): s.c.
Description: Animals. Male ICR mice (20-25 g) obtained from Harlan Laboratories (Indianapolis, Ind.) were used throughout the study. Animals were housed in groups of six and had free access to food and water. Adult, male Long-Evans rats (350-460 g), obtained from Harlan (Dublin, Va.), were individually housed in a temperature-controlled (20-22° C.) environment with a 12-hour light-dark cycle (lights on at 7 a.m.). Rats were maintained within the indicated weight range by restricted post-session feeding and had ad libitum water in their home cages. Rats were drug-naive at the beginning of the study. Animals were housed in an AALAC approved facility and the study was approved by the Institutional Animal Care and Use Committee of Virginia Commonwealth University.
Locomotor activity. Mice were placed into individual Omnitech photocell activity cages (28×16.5 cm) immediately after s.c. administration of either 0.9% saline or nicotine (6.2 μmol/kg or 1 mg/kg) and were allowed to acclimate for 10 minutes. Interruptions of the photocell beams (two banks of eight cells each) were then recorded for the next 10 minutes. Data were expressed as percentage of depression where % depression=[1−(counts from nicotine-treated animals/counts from vehicle-treated animals)]×100. Mice were pretreated s.c. with either saline or TMPH 10 minutes before nicotine.
Eight to twelve mice were tested in each treatment group and each animal was tested only once.
Statistical analysis. Statistical analysis of all analgesic and in vivo studies was performed using either t-test or analysis of variance (ANOVA) with Tukey's test post hoc test when appropriate. All differences were considered significant at p<0.05. AD50 values with 95% CL for behavioral data were calculated by unweighted least-squares linear regression as described by Tallarida and Murray (Tallarida and Murray Manual of Pharmacological Calculations with Computer Programs. 1987, Springer-Verlag, New York).

T1 sequence (P04757 26-499): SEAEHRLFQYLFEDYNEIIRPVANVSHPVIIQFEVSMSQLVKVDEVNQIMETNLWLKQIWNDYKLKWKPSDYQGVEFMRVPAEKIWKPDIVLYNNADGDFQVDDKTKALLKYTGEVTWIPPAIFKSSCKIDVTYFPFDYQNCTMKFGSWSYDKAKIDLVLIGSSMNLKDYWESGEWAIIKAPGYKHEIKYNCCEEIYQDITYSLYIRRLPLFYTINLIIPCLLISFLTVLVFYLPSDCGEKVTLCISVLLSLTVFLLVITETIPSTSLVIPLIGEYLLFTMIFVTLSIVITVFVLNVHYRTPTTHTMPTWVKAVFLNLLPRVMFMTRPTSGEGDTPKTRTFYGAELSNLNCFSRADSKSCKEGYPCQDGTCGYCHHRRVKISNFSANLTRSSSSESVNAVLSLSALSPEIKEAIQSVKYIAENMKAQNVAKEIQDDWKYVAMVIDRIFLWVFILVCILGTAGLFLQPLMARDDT
T1 sequence (P12390 25-500): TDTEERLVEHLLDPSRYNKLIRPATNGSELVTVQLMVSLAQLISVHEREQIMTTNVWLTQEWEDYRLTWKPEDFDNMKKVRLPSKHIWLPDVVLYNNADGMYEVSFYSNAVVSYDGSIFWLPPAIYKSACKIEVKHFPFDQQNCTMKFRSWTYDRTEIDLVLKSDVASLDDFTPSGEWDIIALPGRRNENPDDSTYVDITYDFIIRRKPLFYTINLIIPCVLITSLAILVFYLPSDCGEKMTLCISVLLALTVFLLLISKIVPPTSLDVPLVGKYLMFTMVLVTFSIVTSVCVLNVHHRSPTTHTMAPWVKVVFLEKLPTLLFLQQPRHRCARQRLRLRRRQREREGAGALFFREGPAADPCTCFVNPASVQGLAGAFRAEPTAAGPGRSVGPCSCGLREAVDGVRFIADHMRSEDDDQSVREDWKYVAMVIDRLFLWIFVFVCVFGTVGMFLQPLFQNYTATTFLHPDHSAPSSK
T1 sequence (P12391 31-464): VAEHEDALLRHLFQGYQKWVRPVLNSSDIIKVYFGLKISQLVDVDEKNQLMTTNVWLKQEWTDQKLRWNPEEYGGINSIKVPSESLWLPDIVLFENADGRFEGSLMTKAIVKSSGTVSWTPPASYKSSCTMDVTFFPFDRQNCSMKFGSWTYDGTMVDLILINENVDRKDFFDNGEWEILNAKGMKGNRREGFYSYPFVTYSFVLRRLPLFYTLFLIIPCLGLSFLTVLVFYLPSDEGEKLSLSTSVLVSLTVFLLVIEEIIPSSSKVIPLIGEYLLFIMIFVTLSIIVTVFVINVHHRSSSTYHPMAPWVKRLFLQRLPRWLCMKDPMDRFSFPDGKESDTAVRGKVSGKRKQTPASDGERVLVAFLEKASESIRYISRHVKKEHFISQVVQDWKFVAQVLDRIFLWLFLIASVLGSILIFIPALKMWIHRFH

## CCCCCCC(=O)OC1CC(C)(C)NC(C)(C)C1 [TMPH, 2,2,6,6-tetramethylpiperidin-4-yl heptanoate]
Rat α3β2β3; decrease in net charge, 100 μM ACh co-applied with TMPH, read-out: IC50 (area)
  IC50: 2.7 ± 0.6 µM
Rat α3β2β3; decrease in peak current amplitude, 100 μM ACh co-applied with TMPH, read-out: IC50 (peak)
  IC50: 120 ± 80 µM
Rat α3β2β3; inhibition still present after 5-minute wash, read-out: IC50 (recovery)
  IC50: 4.3 ± 1.5 µM
Rat α3β2β3; ratio
  IC50 net charge/IC50 peak: 0.025
  IC50 recovery/IC50 net charge: 1.6
mice; TMPH 20 mg/kg s.c. 15 minutes prior to nicotine (1.5 mg/kg)
  effect on hypomotility induced by nicotine: failed to significantly reduce
mice; TMPH (20 mg/kg)/Nicotine (1.5 mg/kg)
  Locomotor Activity # Interrupts (Mean ± SEM): 397 ± 170 # Interrupts
mice; TMPH (20 mg/kg)/Saline
  Locomotor Activity # Interrupts (Mean ± SEM): 2031 ± 160 # Interrupts
mice; TMPH @ 20 mg/kg
  blockade of nicotine-induced hypomotility: 0% blockade @ 20
mice; s.c. injection, at the indicated doses and times
  effect of TMPH by itself on locomotor activity: did not have a significant effect
